# Experimental data as given in US12678472B2, “Method for selective recovery of hydrophobic compounds” (priority 2019, dated 2026).
# Experiments:
# [1] = Capture of target molecule from solution by insoluble cross-linked cyclodextrin polymer (batch slurry, supernatant measured after filtration); conditions: Example 9: 2 mg/mL CBD in 1:1 ethanol:water, 10:1 polymer:CBD
# Protocol: A standard protocol was followed in all Examples with the variances from the standard protocol as described in each Example. The standard protocol included a plurality of steps. A mass of CBD was dissolved in ethanol to form a stock solution. A reference sample of the stock solution was diluted with ethanol to obtain a target CBD or other target molecule concentration for a reference measurement. A reaction sample was taken from the remaining stock solution. A cross-linked polysaccharide was combined with the reaction sample in a ratio relative to the CBD or other target molecule concentration present in the reaction sample (by mass) as specified in Examples. The cross-linked polymer is HDI-linked cyclodextrin prepared with a ratio of 8:1 HDI to cyclodextrin.
# Water is combined with the reaction sample until the reaction sample reaches a target CBD or other target molecule concentration, and a target ethanol to water ratio. The reaction mixture including the water is filtered at a cutoff size of between 75 μm to 4,000 μm aperture size, or exposed to a magnetic field with a neodymium magnet through the wall of a flask, to retrieve the cross-linked polymer bound with CBD or other target molecule concentration. Once retrieved, the cross-linked polymer is flushed with a dissociation solvent for dissolving the target molecule. […]
# [2] = Solubility of CBD in ethanol:water mixtures
structure (smiles),measurement,setting,value
"C=C(C)[C@@H]1CCC(C)=C[C@H]1c1c(O)cc(CCCCC)cc1O [CBD, cannabidiol]",time to capture plateau,[1],about 5 minutes
same,solubility of CBD,"[2]; 40:60 EtOH:H2O, 2 mg/mL CBD",not fully dissolved
same,solubility of CBD,"[2]; 45:56 EtOH:H2O, 2 mg/mL CBD",cloudy
same,solubility of CBD,"[2]; 50:50 EtOH:H2O, EtOH added first then H2O",dissolves
same,solubility of CBD,[2]; Example 13: 6 mg/mL in 1:1 EtOH:H2O with sonication and heating,did not dissolve
same,percent of the CBD not in solution,[2]; Example 17: CBD in 3:7 EtOH:H2O,Ten
